“And” between values parts separate entries of the source, which are not always exact repeats. Equal entries are not always repeated.
Assays:
[1] = tested on: C57BL/6J mice fed with a high-fat diet; test: Anti-diabetic efficacy evaluation (in vivo), blood glucose after oral glucose; design: blood glucose, individual animal / blood glucose, Mean: unit not given here; settings: for blood glucose, Mean / blood glucose, individual animal: 60% fat diet mice; for blood glucose increase by glucose: high-fat diet mice, compared with the NC group
Excerpt: 6-week-old C57BL/6J mice as experimental animals were purchased from Central Lab. Animal Inc. (Seoul, Korea), and then were used for experiments after acclimatization with a normal diet for 1 week. A high-fat feed was used from Research Diets, inc. (#product D12492).
The experimental animals were divided into a total of four groups, and three mice for each group were raised for 12 weeks.
In addition, the experimental animals were divided into a total of […], and three mice for each group were raised for 12 weeks.
After the pre-treatment with a peptide for 30 minutes, glucose (60 mg/300 ul distilled water) were orally administered, and then the blood glucose lowering effect over time was examined. The results are shown in FIGS. 6a to 6b and tables 5 and 6.

GLUT4 = GLUT4 RT-PCR in insulin resistance conditions (TNF-α); type: cell-based; settings: reduced by TNF-α treatment, peptide treatment 16 hours
Description: (§1) Total RNA was extracted using Qiagen RNeasy kit. For synthesis of single-stranded DNA from RNA, […] of RNA, […] of random hexamer, and DEPC-treated water were added, followed by reaction for 5 minutes at 65° C. 5× first strand buffer, 0.1 M DTT, 10 mM of dNTP, and reverse transcriptase were added to reach a total volume of […], followed by reaction at 42° C. for 1 hour. After heating at 95° C. for 5 minutes again, 10 ml of distilled water was added to make a final volume, […], of cDNA.
(§2) PCR was conducted by mixing 3 ml of cDNA, 10 pmole of CGI 58 gene-specific primer, 10× Tag buffer, 10 mM dNTP, and i-Tag DNA synthetase. PCR conditions were: 94° C. for 30 seconds, 55-56° C. for 30 seconds, and 72° C. for 30 seconds. Cycle number genes were analyzed in the conditions in which the PCR results could be exponentially amplified. 5 ml of PCR product was obtained, electrophoresed on 1% agarose gel, and stained with ethidium bromide.
(§3) After the insulin resistance conditions were configured by TNF-α treatment, the peptide treatment was conducted for 16 hours, followed by collection and then the resultant product was collected and the changes of respective factors were examined by RT-PCR. RT-PCR conditions are the same as in example 3.

mouse adipose tissue [2] = test: Glycerol assay (lipolysis induction); type: cell-based; settings: compared with control group NC; for secretion of glycerol: mouse adipose tissue, cultured 48-72 hours with peptide
Excerpt: Adipocytes store extra energy in the form of triglycerides in lipid droplets, and when energy is needed, the triglycerides are broken down into fatty acids and glycerols by enzymes, such as adipose triglyceride lipase, HSL, and monoglyceride lipase, to produce energy, or the triglycerides are used in cell signaling or lipid synthesis. The measurement of free glycerol release is for evaluating the lytic effect of the glycerides accumulated in fact cells.
In order to measure the lipolytic effect by the peptides of the present invention, the mouse adipose tissue was taken and cultured in 100-mm dish (DMEM) for one day. Thereafter, the adipose tissue was cut into equal weight, transferred onto 24-well plate, treated with the peptides, and cultured for 48-72 hours. Each 100 ul of the medium was collected according to the treatment period, and subjected to glycerol assay.

adiponectin = test: Adiponectin RT-PCR in insulin resistance conditions (TNF-α); type: cell-based; settings: reduced by TNF-α treatment, peptide treatment 16 hours
Description: as §1, §2, §3

AMPK-α1 = AMPK-α1 RT-PCR in insulin resistance conditions (TNF-α); type: cell-based; settings: reduced by TNF-α treatment, peptide treatment 16 hours
Description: as §1, §2, §3

3T3-L1 cells = test: Oil red O staining (lipid accumulation inhibition); type: cell-based; settings: day 9 of differentiation induction
Description: In order to measure the lipid accumulation inhibitory effect by the peptides of the present invention, 3T3-L1 cells were seeded in 24-well plate at 2×10^4 cells/well, followed by culture, and then the medium was exchanged with a differentiation medium containing 10 ug/ml insulin, 0.1 uM dexamethasone, and 0.5 uM IBMX, followed by treatment with the peptides having different concentrations.
Thereafter, the medium was exchanged into a medium containing 10 ug/ml insulin every two days, and on day 9 of differentiation induction, an oil-red-red O staining assay was conducted.
The cells were washed with PBS, immobilized by the treatment with 4% para-form aldehyde for 10 minutes, washed with distilled water, and then cultured in 60% isopropanol for 5-10 minutes. The immobilized cells were stained with an oil red solution [1% Oil Red in isopropanol was diluted in dH2O in ratio of 6:4 (vol/vol)] for 30 minutes, and then again washed with PBS. The stained cells were observed by an optical microscope, followed by washing with distilled water, and 1 ml of 100% isopropanol was added thereto, followed by stirring at 4° C. The next day, quantification was conducted at 510 nm.

pHSL = test: Immunohistochemical staining with anti-pHSL antibody (lipolysis induction); type: cell-based; settings: mouse adipose tissue, 48-72 hours
Excerpt: In order to investigate a mechanism by which the peptides of the present invention stimulate the lysis of triglycerides to suppress the lipid accumulation in adipocytes, the effect of the peptides of the present invention on HSL gene expression was examined. HSL enzyme is known as a lipolytic enzyme that breaks down triglycerides into free fatty acids and glycerols when the HSL enzyme breaks down lipids in the adipose tissue.
The mouse adipose tissue was taken and cultured in 100-mm dish (DMEM) for one day. Thereafter, the adipose tissue was cut into equal weight, transferred onto 24-well plate, treated with the peptides, and cultured for 48-72 hours. Each tissue slice was subjected to immunohistochemical staining using anti-pHSL antibody, and photographed by a fluorescent microscope.

CGI-58 = CGI-58 RT-PCR; type: cell-based; settings: intracellular
Description: as §1, §2

mouse adipose tissue [3] = test: Histological analysis, H&E staining (lipolysis induction); type: cell-based; settings: as the concentration of the peptide increased
Description: The mouse adipose tissue was taken and cultured in 100-mm dish (DMEM) for one day. Thereafter, the adipose tissue was cut into equal weight, transferred onto 24-well plate, treated with the peptides, and cultured for 48-72 hours. Each tissue slice was subjected to H&E staining. The photo files obtained from microscopic photographing were divided into compartments through Image J, and analyzed using a program that can compare the sizes of each compartment. Through this, the area of the total number of cells can be obtained, and the average area obtained by dividing the area by the total number of cells can also be obtained. The results may be expressed differently depending on the degree of staining. However, correction can be made by adjusting the threshold value in the beginning, and the results were obtained after the cells with relatively small areas from the comparison with the original file were removed.

IRS-1 = IRS-1 RT-PCR in insulin resistance conditions (TNF-α); type: cell-based; settings: reduced by TNF-α treatment, peptide treatment 16 hours
Description: as §1, §2, §3

[4] = 0 min, IP 2 mg/ml 300 ul, Table 6
[5] = 0 min, oral 2 mg/ml 300 ul, Table 6
[6] = 10 min, IP 2 mg/ml 300 ul, Table 6
[7] = 10 min, oral 2 mg/ml 300 ul, Table 6
[8] = 40 min, IP 2 mg/ml 300 ul, Table 6
[9] = 40 min, oral 2 mg/ml 300 ul, Table 6
[10] = 80 min, IP 2 mg/ml 300 ul, Table 6
[11] = 80 min, oral 2 mg/ml 300 ul, Table 6
[12] = 140 min, IP 2 mg/ml 300 ul, Table 6
[13] = 140 min, oral 2 mg/ml 300 ul, Table 6
[14] = 200 min, IP 2 mg/ml 300 ul, Table 6
[15] = 200 min, oral 2 mg/ml 300 ul, Table 6
[16] = 0 min, oral 2 mg/ml 300 ul, Table 5
[17] = 30 min, oral 2 mg/ml 300 ul, Table 5
[18] = 60 min, oral 2 mg/ml 300 ul, Table 5
[19] = 90 min, oral 2 mg/ml 300 ul, Table 5
[20] = 120 min, oral 2 mg/ml 300 ul, Table 5

His-Glu-Thr-Phe-Glu (HETFE) [SEQ ID NO: 2]
blood glucose, Mean [1, 4]: 155.00 | blood glucose, individual animal [1, 4]: 145.00 and 165.00 | blood glucose, Mean [1, 5]: 162 | blood glucose, individual animal [1, 5]: 159.00 and 165.00 | blood glucose, Mean [1, 6]: 197.00 | blood glucose, individual animal [1, 6]: 203.00 and 190.00 | blood glucose, Mean [1, 7]: 191 | blood glucose, individual animal [1, 7]: 188.00 and 193.00 | blood glucose, Mean [1, 8]: 179.00 | blood glucose, individual animal [1, 8]: 162.00 and 195.00 | blood glucose, Mean [1, 9]: 161 | blood glucose, individual animal [1, 9]: 164.00 and 157.00 | blood glucose, Mean [1, 10]: 164.00 | blood glucose, individual animal [1, 10]: 170.00 and 158.00 | blood glucose, Mean [1, 11]: 155 | blood glucose, individual animal [1, 11]: 163.00 and 147.00 | blood glucose, Mean [1, 12]: 123.00 | blood glucose, individual animal [1, 12]: 130.00 and 115.00 | blood glucose, Mean [1, 13]: 129 | blood glucose, individual animal [1, 13]: 122.00 and 135.00 | blood glucose, Mean [1, 14]: 112.00 | blood glucose, individual animal [1, 14]: 129.00 and 94.00 | blood glucose, Mean [1, 15]: 122 | blood glucose, individual animal [1, 15]: 118.00 and 126.00 | blood glucose increase by glucose [1]: reduced | expression of the glucose transporter GLUT4 (GLUT4): again increased | increase of secretion of glycerol (mouse adipose tissue [2]; high-concentration peptide treatment): 22% | secretion of glycerol (mouse adipose tissue [2]): increased | expression of adiponectin (adiponectin): again increased | expression of AMPK-α1 (AMPK-α1): again increased | degree of lipid accumulation in the cells (3T3-L1 cells): reduced | expression of hormone sensitive lipase (pHSL) (pHSL): increased | expression of the lipolysis factor CGI-58 (CGI-58): increased

Lys-Glu-Arg-Lys-Ser (KERKS) [SEQ ID NO: 1]
blood glucose, Mean [1, 16]: 134.67 | blood glucose, individual animal [1, 16]: 145.00 and 165.00 | blood glucose, Mean [1, 17]: 163.67 | blood glucose, individual animal [1, 17]: 203.00 and 190.00 | blood glucose, Mean [1, 18]: 142.00 | blood glucose, individual animal [1, 18]: 162.00 and 195.00 | blood glucose, Mean [1, 19]: 142.67 | blood glucose, individual animal [1, 19]: 170.00 and 158.00 | blood glucose, Mean [1, 20]: 125.67 | blood glucose, individual animal [1, 20]: 130.00 and 115.00 | blood glucose increase by glucose [1]: reduced | expression of the glucose transporter GLUT4 (GLUT4): again increased | secretion of glycerol (mouse adipose tissue [2]): increased | expression of adiponectin (adiponectin): again increased | expression of AMPK-α1 (AMPK-α1): again increased | lipid area (mouse adipose tissue [3]): reduced | number of adipocytes (mouse adipose tissue [3]): increased | degree of lipid accumulation in the cells (3T3-L1 cells): reduced | expression of hormone sensitive lipase (pHSL) (pHSL): increased | expression of the lipolysis factor CGI-58 (CGI-58): increased | expression of the insulin receptor signaling protein IRS-1 (IRS-1): again increased

Reference: patent US10351598B2, “Peptide with anti-obesity and anti-diabetic efficacy and use thereof” (CAREGEN CO., LTD., priority 2016, dated 2019)
